pIC50: −log10 of the molar value. Read-outs that look alike come from different tables or passages of the source.
Legend:
Experiment in all cases: CellTiter-Glo in vitro cell proliferation assay, Example 8
Format in all cases: cell-based, Human
KMM-1 cells = conditions: KMM-1, HMCL-A, read-out: Mean IC50
Description: (§1) In this Example, in vitro cell proliferation assays were performed using: (1) Human Myeloma tumor cell lines; (2) Human Lymphoma tumor cell lines; (3) Solid Human tumor cell lines; and (4) Parental, Lenalidomide resistant and Bortezomib resistant Jeko-1 Mantle cell Lymphoma tumor cell lines. The compounds tested were three diharmaline compounds, namely the 518B562 (or simply 562), 560, and 561 compounds. In addition, a monoharmaline product designated as 518F014 was also tested. This monoharmaline product had the following structure:
(§2) Each proliferation assay was carried out as follows. The test cells were plated in growth media using a 384-well microtiter plate at 50 μL volume. The cells were incubated for 24 hours at 37° C. in a humidified incubator. After 24 hours of incubation, the test compounds were added to the test wells in DSMO solvent, at concentrations ranging from 0.0075-100 μM. Control wells received equal volumes of DSMO, without compound. Following drugging, the cells were incubated for 72 hours at 37° C. in a humidified incubator. After this exposure, 100 μL of a 1:1 mixture of sterile water and CellTiter-Glo® reagent (Promega) was added to each well. The plates were then incubated for 60 minutes at room temperature, followed by recording the luminescence value of each well using a luminometer as a measure of cell proliferation.

ASPC-1 cells = conditions: ASPC-1, Pancreatic, read-out: Mean IC50
Description: as §1, §2

JIM1 cells = conditions: JIM1, HMCL, read-out: Mean IC50
Description: as §1, §2

DOHH-2 cells = conditions: DoHH-2, GCB-DLBCL, read-out: Mean IC50
Description: as §1, §2

A2780 cells = conditions: A2780, Ovarian, read-out: Mean IC50
Description: as §1, §2

FaDu cells = conditions: H&N - SC, read-out: Mean IC50
Description: as §1, §2

MIA PaCa-2 cells = conditions: MIA PaCa-2, Pancreatic, read-out: Mean IC50
Description: as §1, §2

L363 cells = conditions: L363, PCL/MM, read-out: Mean IC50
Description: as §1, §2

A2780CP cells = conditions: Ovarian, read-out: Mean IC50
Description: as §1, §2

HEC-1a cells = conditions: Endometrial, read-out: Mean IC50
Description: as §1, §2

H1650 (EGFR mut) cells = conditions: NSCLC, read-out: Mean IC50
Description: as §1, §2

BxPC-3 cells = conditions: BxPC-3, Pancreatic; read-out: Mean IC50
Description: as §1, §2

AN3CA cells = conditions: Endometrial, read-out: Mean IC50
Description: as §1, §2

MDA-MB-468 cells = conditions: MDA-MB-468, TNBC; read-out: Mean IC50
Description: as §1, §2

HCC70 cells = conditions: HCC70, TNBC; read-out: Mean IC50
Description: as §1, §2

A498 cells = conditions: A498, RCC; read-out: Mean IC50
Description: as §1, §2

H1975 (EGFR mut) cells = conditions: NSCLC, read-out: Mean IC50
Description: as §1, §2

MDA-MB-231 cells = conditions: MDA-MB-231, TNBC; read-out: Mean IC50
Description: as §1, §2

MOLP-8 cells = conditions: MOLP-8, MM IgD; read-out: Mean IC50
Description: as §1, §2

OCI-LY3 cells = conditions: OCI-LY3, ABC-DLBCL; read-out: Mean IC50
Description: as §1, §2

KMS-34 cells = conditions: KMS-34, HMCL-B; read-out: Mean IC50
Description: as §1, §2

RPMI-8226 cells = conditions: RPMI-8226, HMM
Description: as §2
In this example, different cell lines were subjected to in vitro cell proliferation assays as described in Example 8. In particular, the cell lines are identified in the following Table 17, and the tissue types were: Pancreatic; Endometrial; Triple-Negative Breast Cancer (TNBC); Non-Small-Cell Lung Carcinoma (NSCLC); Ovarian; Renal Cell Carcinoma (RCC); Cervical-Squamous Cell; […] (H&N-Squamous Cell); Germinal Center B Cell-Like Novo Diffuse Large B-Cell Lymphoma (GCB-DLBCL); Activated B-Cell—Diffuse Large B Cell Lymphoma (ABC-DLBCL); Human Myeloma; Human Myeloma Cell Line Lymphocyte-Like; Human Myeloma Cell Line Lymphocyte-Like Myeloma Pleural Effusion Infiltration; Human Multiple Myeloma; Plasma Cell Leukemia/Multiple Myeloma Epstein-Barr Nuclear Antigen-Negative (EBNA-Negative) and to Express mRNA for Proto-Oncogene B-Cell Lymphoma 2 (BCL2); Multiple Myeloma from Peripheral Blood Type IgD Lmabda.

SiHA cells = conditions: Cervical - SC, read-out: Mean IC50
Description: as §1, §2

Structure (SMILES)	pIC50 (A2780CP cells)	pIC50 (KMM-1 cells)	pIC50 (ASPC-1 cells)	pIC50 (H1650 (EGFR mut) cells)	pIC50 (BxPC-3 cells)	pIC50 (AN3CA cells)	pIC50 (HCC70 cells)	pIC50 (A498 cells)	pIC50 (JIM1 cells)	pIC50 (DOHH-2 cells)	pIC50 (A2780 cells)	pIC50 (H1975 (EGFR mut) cells)	pIC50 (MDA-MB-231 cells)	pIC50 (FaDu cells)	pIC50 (MOLP-8 cells)	pIC50 (MIA PaCa-2 cells)	pIC50 (L363 cells)	pIC50 (OCI-LY3 cells)	pIC50 (KMS-34 cells)	pIC50 (RPMI-8226 cells)	also measured
COc1cc(C2CC3(CC4(NCCc5sccc54)C2C2=NCCc4sccc42)NCCc2sccc23)ccc1O (stereo not shown) [HRM05]	–	–	–	–	–	–	–	–	–	–	–	–	–	–	–	–	–	–	–	–	pIC50 (KMM-1 cells; Homo sapiens): 4.90; pIC50 (ASPC-1 cells; Homo sapiens, ASPC1): 4.69; pIC50 (JIM1 cells; Homo sapiens): 4.75; pIC50 (DOHH-2 cells; Homo sapiens): 4.75; pIC50 (A2780 cells; Homo sapiens): 4.80; pIC50 (FaDu cells; Homo sapiens): 4.85; pIC50 (MIA PaCa-2 cells; Homo sapiens): 4.91; pIC50 (L363 cells; Homo sapiens, L-363): 4.86
COc1ccc(C(CC2=NCCc3c2[nH]c2cc(OC)ccc32)CC2=NCCc3c2[nH]c2cc(OC)ccc32)c(O)c1 [compound 8]	4.30	4.88	4.26	4.22	4.66	4.69	4.60	4.10	4.84	5.20	4.73	4.26	4.61	4.79	5.00	4.62	4.90	4.95	4.96	4.94	pIC50 (HEC-1a cells): 4.18; pIC50 (MDA-MB-468 cells): 5.07
COc1ccc2c3c([nH]c2c1)C(CC(CC1=NCCc2c1[nH]c1cc(OC)ccc21)c1cccc(-c2ccccc2)c1)=NCC3 [compound 18]	4.51	4.47	4.36	4.34	4.44	4.54	4.44	4.03	4.40	5.07	4.58	4.23	4.36	4.31	4.91	4.49	4.46	4.60	4.75	4.91	pIC50 (HEC-1a cells): 4.30; pIC50 (MDA-MB-468 cells): 4.31
COc1ccc2c3c([nH]c2c1)C(CC(CC1=NCCc2c1[nH]c1cc(OC)ccc21)c1ccc(C(C)C)cc1)=NCC3 [compound 29]	4.94	5.11	4.97	4.86	4.94	5.09	4.40	4.37	4.78	5.68	4.92	4.87	4.86	4.94	5.23	4.95	4.94	5.02	5.36	5.35	pIC50 (SiHA cells): 4.33
